Tests used:
[1] = target: PCP recognition sites; test: [3H]TCP radioreceptor assay (internal screen), binding to PCP recognition sites in rat whole brain membranes; parameters: species or system rat (male Sprague-Dawley); details: 25 min, room temperature; for Ki: approx. 1 nM [3H]TCP, mean of at least two separate determinations
Experimental: [^3 H]TCP binding to PCP recognition sites was performed as described by Vignon et al. Brain Research 1983, 280, 194-197. Male Sprague-Dawley rats were sacrificed by decapitation, and whole brains were homogenized in 10 volumes (wt/vol) of cold Tris-HCl buffer (50 mM, pH 7.7) using a Brinkmann Polytron (setting 6, 30 sec). The homogenate was centrifuged at 40,000×g for 10 min at 4° C. The supernatant was decanted, and the homogenization and centrifugation steps were repeated twice as described above. Following this, the pellet was resuspended in Tris-HCl (5 mM, pH 7.7) at a tissue concentration of 0.5-0.75 g/ml, and one ml aliquots were frozen at -70° C. until use. The binding characteristics for PCP recognition sites were not altered by the freezing of membrane suspensions.
On the day of the assay, membrane aliquots were thawed, resuspended in fresh 5 mM Tris-HCl buffer at a tissue concentration of 1 mg/ml, and stored on ice until use. Each assay tube contained 100 μl of [^3 H]TCP at a final concentration of approximately 1 nM, 100 μl of various concentrations of the compounds of interest, 500 μl of the tissue suspension and 300 μl of buffer to a final assay volume of 1 ml and a final protein concentration of 0.5 mg/tube. Non-specific binding was defined by addition of a final concentration of 100 μM PCP to blank tubes. All tubes were incubated at room temperature for 25 min before termination of the reaction by rapid filtration over Whatman GF/B glass fiber filters that had been presoaked in a solution of 0.5% polyethylenimine for at least 1 hr prior to use. Filters were washed with three 4 ml volumes of cold Tris buffer. Following addition of scintillation cocktail, the amount of bound radioactivity was determined by liquid scintillation spectrometry using a Beckman LS 5000TA liquid scintillation counter with an efficiency for tritium of approximately 55%. Inhibition constants (Ki values) were calculated using the EBDA/LIGAND program (McPherson, J. Pharmacol. Meth. 1985, 14, 213-228), purchased from Elsevier/Biosoft, Inc. Results are reported as Ki values which are expressed as the mean of at least two separate determinations; or as a percent (%) inhibition of binding at 10 μM.

[2] = tested on: PCP recognition sites; test: [3H]TCP radioreceptor assay (external screen), binding to PCP recognition sites in whole rat forebrain membranes; details: 25° C., 60 min
Experimental: A procedure similar to that described above, for the [^3 H]TCP radioreceptor assay (internal screen) was utilized except that the whole rat forebrain membranes were incubated at 25° C. for 60 minutes rather than at room temperature for 25 minutes, before termination of the reaction. The results are reported as a percent (%) inhibition of binding at 10 μM.

[3] = tested on: NMDA-induced neurotoxicity in cultured cortical neurons; test: Antagonism of NMDA-induced neurotoxicity in cultured cortical neurons (LDH release); assay type: cell-based, mouse (Swiss-Webster); details: Mus musculus, Cortical neurone; 500 μM NMDA, 30 min exposure; LDH activity 24 h after removal of NMDA; day 13 cultured cortical neurons
Experimental: Pregnant, Swiss-Webster mice were obtained from Taconic Farms (Germantown, N.Y.) and sacrificed 16 days post conception. Fetuses were removed and placed in a sterile dish containing Hank's balanced salt solution (HBSS), pH 7.4. Brain cortices were dissected, meninges were removed, the tissue was minced and placed into a solution of HBSS containing 0.25% (w/v) trypsin at 37° C. for 15 minutes. Tissue was then triturated with a sterile pasteur pipet, diluted with minimal essential media (Gibco 330-1430), pH 7.4, supplemented with 10% horse serum, 10% fetal calf serum, 2 mM 1-glutamine, 21 mM d-glucose, 2.2 g/L sodium bicarbonate, 1000 U/ml penicillin, and 1,000 μg/ml streptomycin. Cells were plated onto Falcon primaria 96 well plates at a final density of 50,000 cells/well and incubated at 37° C. in the presence of 5% (v/v) carbon dioxide. After 5 days, plating media was replaced with maintenance media containing minimal essential media (Gibco 330-1430), pH 7.4, supplemented with 10% horse serum, 10% 1-glutamine, 21 mM d-glucose, 2.2 g/l sodium bicarbonate,1,000 U/ml penicillin, 1,000 μg/ml streptomycin, and 10 μM cytosine arabinoside. On days 7 and 10, media was replaced with maintenance media as above lacking the cytosine arabinoside. Experiments were conducted on day 13. […]

SMILES | Ki [1] [nM] | [3H]TCP (external screen) Percent Inhibition (%) @10 μM [2] [%] | further results
Brc1ccc2c(c1)C1c3cccc[n+]3C2C2CC=CC12 (centres unmarked) [4(c), 9-bromo-6,11[3',4']cyclopentenyl-6,11-dihydrobenzo[b]quinolizinium bromide] | 1630 | – | –
Fc1ccc2c(c1)C1c3cccc[n+]3C2C2CC=CC12 (centres unmarked) [5(c), 9-fluoro-6,11[3',4']cyclopentenyl-6,11-dihydrobenzo-[b]quinolizinium perchlorate] | 806 | – | –
CC12c3ccccc3C(c3cccc[n+]31)C1C=CCC12 (centres unmarked) [12(c), 6-methyl-6,11[3',4']cyclopentenyl-6,11-dihydrobenzo[b]quinolizinium perchlorate, .1/2 H2 O] | 93.4 | – | –
CC(C)=C1C=CC2C3c4ccccc4C(C12)[n+]1ccccc13 (centres unmarked) [14(b), 6,11-[5'-isopropylidene-[3',4']cyclopentenyl]-6,11-dihydrobenzo[b]quinolizinium perchlorate] | 367 | – | –
C1=CC2C3c4ccccc4C(C2C1)[n+]1ccccc13 (centres unmarked) [15(a), 6,11-[3',4']cyclopentenyl-6,11-dihydrobenzo[b]quinolizinium bromide] | 464 | 92 | –
O=[N+]([O-])c1cccc2c1C1c3ccccc3C2c2cccc[n+]21 (centres unmarked) [15(b), 7-Nitro-6,11-benzeno-6,11-dihydrobenzo[b]quinolizinium perchlorate] | – | 9 | [3H]TCP (internal screen) Percent Inhibition @10 μM [1]: 37%
CC(C)(C)c1ccc(O)c2c1C1c3ccccc3C2[n+]2ccccc21 (centres unmarked) [15(c), 7-Hydroxy-10-tert-butyl-6,11-benzeno-6,11-dihydrobenzo[b]quinolizinium perchlorate] | – | 24 | [3H]TCP (internal screen) Percent Inhibition @10 μM [1]: 10%
Cc1cccc2c1C1c3ccccc3C2c2cccc[n+]21 (centres unmarked) [15(d), 7-Methyl-6,11-benzeno-6,11-dihydrobenzo[b]quinolizinium perchlorate] | – | 11 | [3H]TCP (internal screen) Percent Inhibition @10 μM [1]: 52%
C1=CC2C3c4ccccc4C(C2CC1)[n+]1ccccc13 (centres unmarked) [Example 1, 6,11[3',4']-cyclohexenyl-6,11-dihydrobenzo[b]quinolizinium bromide] | 245 | – | –
c1ccc2c(c1)C1c3cccc[n+]3C2C2CCOC12 (centres unmarked) [Example 8, 6,11[2',3']tetrahydrofuranyl-6,11-dihydrobenzo[b]-quinolizinium bromide] | 8490 | – | –
c1ccc2c(c1)C1c3cccc[n+]3C2C2CCCC12 (centres unmarked) [Example 13(a), 6,11[1',2']cyclopentyl-6,11-dihydrobenzo[b]quinolizinium perchlorate.1/2 hydrate] | – | – | Ki ([1]; hydrate): 1560 nM
c1ccc2c(c1)C1c3cccc[n+]3C2C2CCCC12 (centres unmarked) [Example 13(b), 6,11[1',2']cyclopentyl-6,11-dihydrobenzo[b]quinolizinium perchlorate.1/2 hydrate] | – | – | Ki ([1]; hydrate): 366 nM; IC50 [3]: 8400 nM

Reference: US5430036A, “6,11-substituted-6,11-dihydrobenzo[b]quinolizinium salts and compositions and method of use thereof” (Sterling Winthrop Inc., priority 1994, dated 1995)
